# Where two headings read alike, the source gives them in different places.
# How the values were obtained:
# [1] = test system: electrocutaneous stimulation-induced facial pain in rats; test: Electrocutaneous stimulation-induced facial inflammatory pain model; type: in vivo, rat; details: intranasal
# Procedure: In humans electrocutaneous stimulation elicited vasodilatation in the cheek (Vassend and Knardahl, 2005). […] Baseline facial thermal thresholds of rats (Sprague-Dawley, male, 260-300 g) were assessed on the rats' depilated left cheek and then each rat received 1 hour of electrocutaneous facial stimulation using WPI ISOSTIM™ A320 (World Precision Instruments, 0.4 mA intensity, 10 ms duration, Is inter-pulse interval). 24 hr after stimulation (Day 1), each rat's thermal pain threshold mediated by A-delta fiber and C fiber were separately measured using a thermal nociception lamp (variable voltage regulator model: No. SC-3M) to evoke A-delta and C nerve fiber-mediated cheek withdrawal. […] Thermal thresholds were measured once every 0.5 hour for the first 3 hours post-I.N. dosing, and then 4, 5, and 6 hour post-I.N. dosing. Voltage regulator set to 90V for A-delta fiber testing and 45V for C fiber testing. Cutoff set at 6 seconds and 20 seconds for A-delta fiber and C fiber testing, respectively.
# [2] = target: T1, human calcitonin CGRP1 (CGRP1) membrane (Homo sapiens, UniProt O60894+Q16602); type: binding; details: for binding affinity on CGRP receptors (in words): comparison between peptides
# T1 construct: purchased Perkin Elmer (Waltham, Mass.)
# T1 sequence (O60894 27-148): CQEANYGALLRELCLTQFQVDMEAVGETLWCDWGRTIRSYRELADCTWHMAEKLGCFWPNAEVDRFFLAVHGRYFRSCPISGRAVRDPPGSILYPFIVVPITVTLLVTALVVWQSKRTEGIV
# T1 sequence (Q16602 23-461): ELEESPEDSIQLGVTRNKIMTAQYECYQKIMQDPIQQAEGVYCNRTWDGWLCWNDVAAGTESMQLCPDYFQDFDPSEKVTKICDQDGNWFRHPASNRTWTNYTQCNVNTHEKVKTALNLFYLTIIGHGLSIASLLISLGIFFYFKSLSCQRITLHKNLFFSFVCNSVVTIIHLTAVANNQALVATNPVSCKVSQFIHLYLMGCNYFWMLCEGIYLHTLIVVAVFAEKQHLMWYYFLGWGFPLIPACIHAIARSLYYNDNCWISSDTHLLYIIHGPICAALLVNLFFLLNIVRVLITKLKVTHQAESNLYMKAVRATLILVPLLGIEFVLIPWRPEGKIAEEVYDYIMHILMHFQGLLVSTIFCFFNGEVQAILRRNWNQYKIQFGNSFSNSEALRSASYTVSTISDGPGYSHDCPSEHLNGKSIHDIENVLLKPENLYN
# Procedure: CGRP1 membrane was homogenized in the assay buffer (50 mM Tris-HCl pH 7.4, 5 mM MgCl2, 0.5% BSA, 0.05% Tween20). […] After 1 h of incubation, at room temperature, samples were filtered, using a Tomtec cell harvester, through glass fiber filters that had been presoaked in 0.05% polyethyleneimine and washed with the cold Tris buffer (50 mM Tris-HCl pH7.4). Filters were counted on a betaplate reader (Wallac).
# [3] = test system: UVB radiation-induced inflammatory pain in rat cheek; type: in vivo; details: topical application 10 μM, 100 μL, 2% propylene glycol, UVB-irradiated cheek
# [4] = test system: paw incision-induced postoperative pain in rats; test: Paw incision-induced postoperative pain model, mechanical pain threshold; type: in vivo, rat
# Excerpt: A clinically applicable incision model in rodents is a hind-paw deep incision that produces a robust mechanical and cold allodynia, and thermal hyperalgesia (Pogatzki et al., 2003; Xu and Brennan, 2010). Male rats (Sprague-Dawley, 250-260 g, Harlan) used (n=8/group) were anesthetized with 2.5% isoflurane and the skin of the dorsolateral hindpaw surface were prepped by first depilitating it (using Nair), followed by rinsing and application of povidone-iodine. Afterwards, a 5 mm longitudinal incision was made near the hairy/glabrous border though the skin and subcutaneous fascia of the left hindpaw as described by (Pogatzki et al., 2003; Xu and Brennan, 2010). After briefly elevating the underlying muscle with curved forceps the wound is closed with a single nylon (8-0) mattress stitch.
# Pre-surgery (baseline) and 24 hours after the surgery, the mechanical allodynia of the incision hindpaws of the rats were assessed using von Frey monofilaments with an up/down procedure (Chaplan et al., 1994). […] Mechanical pain thresholds were measured at 0.5, 1, 2, 3, 4, 5 and 6 hours post-intradermal injection.
# [5] = test system: tibial neuroma-induced neuropathic pain in rats; test: Tibial neuroma transposition model, neuroma tenderness; type: in vivo, rat; details: injected into skin over neuroma site
# Excerpt: Sprague Dawley rats (male, approximately 400 g) were undergone surgery as described by Dorsi et al., briefly, a 2-3 cm incision was made through the skin and subcutaneous fascia of the ventral surface of the pelvic leg extending from the tarsometatarsal joint to approximately 1 cm distal to the level of the stifle the nerve was isolated and the posterior tibial branch was ligated and then sharply transected approximately 2 mm distal to the ligature, as illustrated in FIG. 8A. After the medial skin incision closure, the rat was transferred to a recovery cage devoid of bedding and placed halfway upon a recirculating hot water pad until standing; once recovered, the rat was returned to its home cage and monitored daily for signs of pain and wound dehiscence.
# The rats were allowed to recover from the surgical procedure before beginning behavioral testing to assess neuroma development. On post-operative days 7 and 14, rats were assessed for mechanical pain using the “up-down” method of Von Frey mechanical testing and direct mechanical stimulation of the neuroma (referred to as neuroma tenderness testing). Neuroma tenderness was tested by applying the 15 g filament to the neuroma site up to five times in a series with a three second break between applications; the series was completed and scored as a positive as soon as a positive withdrawal response is seen. […]
# [6] = intradermal injection 1 μM, 50 μL, 24 hours after incision
# [7] = prevention: injection 1 μM, 50 μL just prior to closing of the wound
substance,measurement,setting,value
"H-NFVPTNVGPFAF-NH2 [AFA-peptide 3, NH2-N-F-V-P-T-N-V-G-P-F-A-F-CONH2]",A-delta fiber-mediated pain withdrawal latencies vs vehicle (in words),[1]; 1 μM,significantly prolonged
same,C-fiber-mediated pain withdrawal latencies vs vehicle (in words),[1]; 1 μM,even more substantial and significantly prolonged
same,"thermal pain thresholds in naïve, non-facial stimulation rats (in words)",[1]; data not shown,did not alter thermal pain thresholds
same,Hill slope,"[2]; 0.24 nM [125I]-CGRP, Mean±SD",1.20 ± 0.02
same,binding affinity on CGRP receptors (in words),[2],higher affinities than conventional CGRP 27-37 and CGRP 8-37
same,binding affinity on CGRP receptors (in words),[2]; listed as Peptide-3,most potent in binding assay
same,A-delta-fiber-mediated responses (in words),[3],little effects
same,duration of action,[4]; [6],around 6 hours
same,mechanical pain threshold (in words),[4]; [6],significantly increased
same,duration of action,[4]; [7],24 h
same,mechanical pain thresholds vs vehicle (in words),[4]; [7],significantly increased mechanical pain thresholds
same,onset of analgesic effect post treatment,"[4]; prevention: injection just prior to closing of the wound, second timepoint assessed",1 h
same,duration of analgesic effect,[5],3 to 4 h
same,neuroma tenderness (in words),"[5]; 0.3 and 1 μM, 50 μL",reduced neuroma tenderness in dose-related manner
